Patent publication US4156777A, “Process for producing glucopyranose-nitrosourea compounds and novel compounds included therein” (Tokyo Tanabe Company, Limited, priority 1977, dated 1979)
Converted amounts (≈) assume the structure as drawn.

What was measured:
[1] = Absorption and excretion of 14C-labelled compounds; format: in vivo, rats
Experimental: The carbon atom at the 2-position of the chloroethyl group (i.e. ClCH2 CH2 -) of 6DCNU and 6MCαG was labelled with radioactive ^14 C, and the absorption and excretion of these compounds were tested using rats.

[2] = test system: Escherichia coli NIHJ JC-2; test: Antibacterial activity, broth-dilution method; format: cell-based; details: NIHJJC2
Source text: (§1) Using 6DCNU and 6MCαG, minimum inhibiting concentrations (referred to as "MIC") for various kinds of bacteria were estimated by means of the broth-dilution method.

[3] = test system: Mycobacterium smegmatis ATCC 607; test: Antibacterial activity, broth-dilution method; format: cell-based; details: Mycolicibacterium smegmatis, ATCC607
Source text: as §1

[4] = test system: Klebsiella pneumoniae IFM 3008; test: Antibacterial activity, broth-dilution method; format: cell-based; details: IFM3008
Source text: as §1

[5] = test system: Pseudomonas aeruginosa IFO 3080; test: Antibacterial activity, broth-dilution method; format: cell-based; details: IFO3080
Source text: as §1

[6] = test system: Staphylococcus aureus FDA 209P JC-1; test: Antibacterial activity, broth-dilution method; format: cell-based; details: FDA209P
Source text: as §1

Shigella sonnei = test: Antibacterial activity, broth-dilution method; format: cell-based
Source text: as §1

Sarcina lutea ATCC 9341 = test: Antibacterial activity, broth-dilution method; format: cell-based; details: Micrococcus luteus, ATCC9341
Source text: as §1

[7] = test system: Bacillus subtilis ATCC 6633; test: Antibacterial activity, broth-dilution method; format: cell-based; details: ATCC6633
Source text: as §1

[8] = test system: Proteus vulgaris AHU 1469; test: Antibacterial activity, broth-dilution method; format: cell-based; details: AHU1469
Source text: as §1

[9] = test system: Streptococcus faecalis AHU 1085; test: Antibacterial activity, broth-dilution method; format: cell-based; details: Enterococcus faecalis, AHU1085
Source text: as §1

leukemia L-1210 = test: Antitumor activity against leukemia L-1210 implanted in BDF1 mice (ILS, 60 days survivors); format: in vivo
Source text: Test compounds were given to BDF1 mice 24 hrs after implantation of 10^6 cells of leukemia L-1210 in each animal, through single intraperitoneal administration, intraperitoneal administration for 5 successive days, single oral administration or oral administration for 5 successive days, whereupon the increase in life span (referred to as "ILS") and number of 60 days survivors of test animals were estimated, said test of antitumor activity being that according to the method of the National Cancer Center, Tokyo [A. Hoshi et al: Farmashia, 9 (1973), 464]. In the tests, the compounds were dissolved in physiological saline solution just before administration.
^a i.p.: intraperitoneal administration p.o: oral administration
D1 : single administration D1~5 : administration for 5
^b percentage calculated from mean survival time over control
^c survivors/six animals

[10] = Solubility in water at 25° C.; format: physicochemical
[11] = Effect on respiration, blood pressure, heart rate and electrocardiogram; format: in vivo, Beagle dogs
Experimental: Beagle dogs of both sexes weighing about 10 kg were anesthetized with pentobarbital sodium (30 mg/kg, i.v.), and immobilized in the supine position. Test compounds dissolved in physiological saline solution were injected into the brachial veins of the animals and the arteries at cannulated positions were treated with heparin sodium as anticoagulant.
The respiration rate of each animal was estimated with a respirometer (Nihonkohden, RP-3) through a tracheal cannula, the blood pressure with an electro-haemodynamometer (Nihonkohden, MP-4T) attached surgically to the femoral artery, and the heart rate with a pulse-rate tachometer (Nihonkohden, RT-2) through the trigger pulse of the blood pressure.

Acute toxicity (LD50) = format: in vivo, male Wister rats; details: for LD50 at 168 h: rat, in vivo, after 1 week
Experimental: Test compounds were dissolved in physiological saline solution just before their dosage and administered to male Wister rats, intraperitoneally, intravenously and orally. After 1 week, the LD50 of each compound was calculated from the mortality of the test animals by the Lichfield-Wilcoxon Method.
i.v.: intravenous administration

For `O=NN(CCCl)C(=O)NC[C@H]1OC(O)[C@H](O)[C@@H](O)[C@@H]1O` (stereo partly drawn) [Example 6DCNU, 3-(D-glucopyranos-6-yl)-1-(2-chloroethyl)-1-nitrosourea], which “absorption, in words” value ([1]; rats, 14C-labelled) is on record?
Its value is “absorbed well”.

And the “excretion rate, intravenous versus oral administration, in words” value ([1]; rats, 14C-labelled)?
The value was “almost the same excretion rates”.

And the “main route of excretion, in words” value ([1]; rats, 14C-labelled)?
The value was “excreted mainly in the urine”.

What about the “excretion in faeces, comparison in words” value ([1]; versus 6MCαG) of the same molecule?
The value was “excreted more than 6MCαG in faeces”.

What about the “excretion velocity, comparison in words” value ([1]; versus 6MCαG) of the same molecule?
Its value is “more rapid than that of 6MCαG”.

What about the “toxicity inferred from excretion, in words” value ([1]; versus 6MCαG) of the same molecule?
Its value is “less toxic than 6MCαG”.

And the MIC [2]?
Its MIC is greater than 200 mg/L.

What about the MIC [3] of the same molecule?
Its MIC is greater than 200 mg/L.

And the MIC [4]?
Its MIC is greater than 200 mg/L.

What about the MIC [5] of the same molecule?
Its MIC is greater than 200 mg/L.

And the MIC [6]?
Its MIC is greater than 200 mg/L.

And the MIC (Shigella sonnei)?
Its MIC is greater than 200 mg/L.

What about the MIC (Sarcina lutea ATCC 9341) of the same molecule?
Its MIC is greater than 200 mg/L.

What about the MIC [7] of the same molecule?
Its MIC is greater than 200 mg/L.

What about the MIC [8] of the same molecule?
The MIC was greater than 200 mg/L.

And the MIC [9]?
The MIC was greater than 200 mg/L.

What about the ILS (leukemia L-1210; 3.2 mg/kg/day, i.p. D1~5) of the same molecule?
Its ILS is greater than 310%.

What about the “Survivors (60 days)” value (leukemia L-1210; 3.2 mg/kg/day, i.p. D1~5) of the same molecule?
Its value is 2/6.

What about the ILS (leukemia L-1210; 6.3 mg/kg/day, i.p. D1~5) of the same molecule?
The ILS was greater than 410%.

What about the “Survivors (60 days)” value (leukemia L-1210; 6.3 mg/kg/day, i.p. D1~5) of the same molecule?
Its value is 4/6.

What about the ILS (leukemia L-1210; 12.5 mg/kg/day, i.p. D1) of the same molecule?
Its ILS is greater than 426%.

What about the “Survivors (60 days)” value (leukemia L-1210; 12.5 mg/kg/day, i.p. D1) of the same molecule?
Its value is 4/6.

What about the ILS (leukemia L-1210; 12.5 mg/kg/day, i.p. D1~5) of the same molecule?
The ILS was greater than 520%.

What about the “Survivors (60 days)” value (leukemia L-1210; 12.5 mg/kg/day, i.p. D1~5) of the same molecule?
Its value is 5/6.

What about the ILS (leukemia L-1210; 12.5 mg/kg/day, p.o. D1~5) of the same molecule?
Its ILS is greater than 123%.

What about the ILS (leukemia L-1210; 15.0 mg/kg/day, i.p. D1~5) of the same molecule?
Its ILS is greater than 650%.

What about the “Survivors (60 days)” value (leukemia L-1210; 15.0 mg/kg/day, i.p. D1~5) of the same molecule?
The value was 6/6.

What about the ILS (leukemia L-1210; 20.0 mg/kg/day, i.p. D1~5) of the same molecule?
The ILS was greater than 670%.

What about the “Survivors (60 days)” value (leukemia L-1210; 20.0 mg/kg/day, i.p. D1~5) of the same molecule?
The value was 6/6.

And the ILS (leukemia L-1210; 25.0 mg/kg/day, i.p. D1)?
The ILS was greater than 561%.

What about the “Survivors (60 days)” value (leukemia L-1210; 25.0 mg/kg/day, i.p. D1) of the same molecule?
Its value is 5/6.

What about the ILS (leukemia L-1210; 25.0 mg/kg/day, i.p. D1~5) of the same molecule?
The ILS was greater than 540%.

What about the “Survivors (60 days)” value (leukemia L-1210; 25.0 mg/kg/day, i.p. D1~5) of the same molecule?
The value was 5/6.

And the ILS (leukemia L-1210; 25.0 mg/kg/day, p.o. D1~5)?
The ILS was greater than 260%.

And the “Survivors (60 days)” value (leukemia L-1210; 25.0 mg/kg/day, p.o. D1~5)?
Its value is 2/6.

What about the ILS (leukemia L-1210; 30.0 mg/kg/day, i.p. D1~5) of the same molecule?
The ILS was greater than 315%.

And the “Survivors (60 days)” value (leukemia L-1210; 30.0 mg/kg/day, i.p. D1~5)?
The value was 3/6.

And the ILS (leukemia L-1210; 35.0 mg/kg/day, p.o. D1~5)?
Its ILS is greater than 390%.

And the “Survivors (60 days)” value (leukemia L-1210; 35.0 mg/kg/day, p.o. D1~5)?
Its value is 3/6.

What about the ILS (leukemia L-1210; 40.0 mg/kg/day, i.p. D1~5) of the same molecule?
Its ILS is greater than 225%.

What about the “Survivors (60 days)” value (leukemia L-1210; 40.0 mg/kg/day, i.p. D1~5) of the same molecule?
The value was 2/6.

And the ILS (leukemia L-1210; 50.0 mg/kg/day, i.p. D1)?
Its ILS is greater than 606%.

And the “Survivors (60 days)” value (leukemia L-1210; 50.0 mg/kg/day, i.p. D1)?
The value was 5/6.

And the ILS (leukemia L-1210; 50.0 mg/kg/day, p.o. D1~5)?
The ILS was greater than 442%.

And the “Survivors (60 days)” value (leukemia L-1210; 50.0 mg/kg/day, p.o. D1~5)?
The value was 3/6.

And the ILS (leukemia L-1210; 70.0 mg/kg/day, i.p. D1)?
The ILS was greater than 321%.

And the “Survivors (60 days)” value (leukemia L-1210; 70.0 mg/kg/day, i.p. D1)?
The value was 3/6.

And the ILS (leukemia L-1210; 70.0 mg/kg/day, p.o. D1~5)?
The ILS was greater than 370%.

What about the “Survivors (60 days)” value (leukemia L-1210; 70.0 mg/kg/day, p.o. D1~5) of the same molecule?
Its value is 3/6.

What about the ILS (leukemia L-1210; 100.0 mg/kg/day, i.p. D1) of the same molecule?
Its ILS is -3%.

What about the ILS (leukemia L-1210; 100.0 mg/kg/day, p.o. D1~5) of the same molecule?
The ILS was greater than 246%.

What about the “Survivors (60 days)” value (leukemia L-1210; 100.0 mg/kg/day, p.o. D1~5) of the same molecule?
Its value is 2/6.

And the ILS (leukemia L-1210; 150.0 mg/kg/day, i.p. D1)?
The ILS was -10%.

What about the ILS (leukemia L-1210; 200.0 mg/kg/day, i.p. D1) of the same molecule?
The ILS was -34%.

And the “antitumor activity, comparison in words” value (leukemia L-1210; L-1210, BDF1 mice)?
The value was “superior to that of DCNU, GANU and 2MCαG, and is almost equal to that of 6MCαG”.

What about the “antitumor activity, in words” value (leukemia L-1210; mouse, in vivo) of the same molecule?
Its value is “excellent antitumor activity”.

And the “antitumor activity in oral administration, in words” value (leukemia L-1210; oral administration)?
The value was “high activity equal to that of 6MCαG in oral administration”.

And the solubility ([10]; amount soluble in 1 ml water at 25° C.)?
The solubility was 750 mg/mL (≈ 2390 mM).

What about the “solubility in water, comparison in words” value ([10]; water, 25° C.) of the same molecule?
The value was “higher than that of both DCNU and 2MCαG and is almost equal to that of 6MCαG”.

And the “maximum dosage without effect, comparison in words” value ([11]; Beagle dogs)?
Its value is “highest dosage value”.

And the NOAEL ([11]; dog, in vivo, iv, injected into brachial veins, anesthetized Beagle dogs, read-out: maximum dosage not effected on respiration, blood pressure, heart rate and electrocardiogram)?
The NOAEL was 70 mg/kg.

And the LD50 at 168 h (Acute toxicity (LD50); ip)?
The LD50 at 168 h was 90 mg/kg.

And the LD50 at 168 h (Acute toxicity (LD50); iv)?
The LD50 at 168 h was 85 mg/kg.

What about the LD50 at 168 h (Acute toxicity (LD50); po) of the same molecule?
Its LD50 at 168 h is 132 mg/kg.

What about the “LD50, comparison in words” value (Acute toxicity (LD50); rats) of the same molecule?
The value was “higher than that of the other known compounds”.
